Results published in US7939509B2, “Partial and full agonists of A1 adenosine receptors” (Gilead Sciences, Inc., priority 2002, dated 2011).

Legend:
awake rats [1] = assay: Serum triglyceride (TG) levels in overnight-fasted awake rats; assay type: in vivo, rat
Protocol: All experimental procedures were performed under a protocol approved by the Institutional Animal Care and Use Committee of CV Therapeutics, Inc., and in accordance with the recommendations set forth in the Guide for the Care and Use of Laboratory Animals published by the National Research Council. Male Sprague-Dawley rats (225-250 gm) with either one or two indwelling catheters (carotid and jugular) were purchased from Charles River Laboratories (Wilmington, Mass.). Animals were housed 1 per cage in a room maintained on a 12 h light/dark cycle (light on 06.00-18.00 h) under constant temperature (22-25° C.) and with ad libitum access to food and water.
The anti-lipolytic effects of Compound A were studied in awake rats. Animals were fasted overnight before experimental use. On the day of the experiment, animals were put in metabolic cages and left undisturbed to acclimate to the environment for 1-2 hrs. An infusion set (21 G×¾″, 0.8×19 mm U.T.W., 3½″, 9 cm tubing, volume 0.15 ml) was connected to the arterial catheter for blood sampling. A 1% sodium citrate saline solution was used to flush the lines. A pre-treatment blood sample was obtained from each animal to determine baseline values for FFA and TG. Compound A was given via oral gavage, sc injection, iv injection, or iv infusion, as described, for each different series of experiments. Blood samples were collected into serum separator tubes (Becton Dickinson, Franklin Lakes, N.J.) at pre-determined times, Blood was allowed to clot, and then centrifuged at 8000 rpm for 4 min at 4° C. The serum was stored at −80° C. and was thawed at 4° C. for determinations of FFA and TG contents.
Compound A was synthesized by the Department of Medicinal and Bio-Organic chemistry of CV Therapeutics, Inc. Sodium citrate and Triton WR1339 were purchased from Sigma (St. Louis, Mo.). Nicotinic acid and PEG 400 were purchased from VWR (by EMD Chemicals). Triton WR 1339 was diluted in warm saline (˜37° C.) with frequent vortexing. Nicotinic acid was dissolved in saline. Compound A was dissolved in PEG 400, and then diluted with distilled water to make a 20% PEG drug solution. Serum FFA and TGs were measured using commercial kits from Wako Chemicals, Richmond, Va. Glucose and Insulin were measured using commercial kits from Wako Chemicals USA (Richmond, Va.).
All data are reported as mean±SEM. Statistical analysis of data from experiments with 2 treatment groups was performed using the unpaired Student's t-test. Two way analysis of variance followed by Bonferroni's test was used for multiple comparisons. Differences among treatment groups were considered to be significant when the probability of their occurrence by chance alone was <0.05.

awake rats [2] = assay: Anti-lipolytic effect: serum free fatty acids (FFA) in overnight-fasted awake rats; assay type: in vivo, rat
Protocol: All experimental procedures were performed under a protocol approved by the Institutional Animal Care and Use Committee of CV Therapeutics, Inc., and in accordance with the recommendations set forth in the Guide for the Care and Use of Laboratory Animals published by the National Research Council. Male Sprague-Dawley rats (225-250 gm) with either one or two indwelling catheters (carotid and jugular) were purchased from Charles River Laboratories (Wilmington, Mass.). Animals were housed 1 per cage in a room maintained on a 12 h light/dark cycle (light on 06.00-18.00 h) under constant temperature (22-25° C.) and with ad libitum access to food and water. The anti-lipolytic effects of Compound A were studied in awake rats. Animals were fasted overnight before experimental use. On the day of the experiment, animals were put in metabolic cages and left undisturbed to acclimate to the environment for 1-2 hrs. An infusion set (21 G×¾″, 0.8×19 mm U.T.W., 3½″, 9 cm tubing, volume 0.15 ml) was connected to the arterial catheter for blood sampling. A 1% sodium citrate saline solution was used to flush the lines. A pre-treatment blood sample was obtained from each animal to determine baseline values for FFA and TG. Compound A was given via oral gavage, sc injection, iv injection, or iv infusion, as described, for each different series of experiments. Blood samples were collected into serum separator tubes (Becton Dickinson, Franklin Lakes, N.J.) at pre-determined times, Blood was allowed to clot, and then centrifuged at 8000 rpm for 4 min at 4° C. The serum was stored at −80° C. and was thawed at 4° C. for determinations of FFA and TG contents. […] Sodium citrate and Triton WR1339 were purchased from Sigma (St. Louis, Mo.). Nicotinic acid and PEG 400 were purchased from VWR (by EMD Chemicals). Triton WR 1339 was diluted in warm saline (˜37° C.) with frequent vortexing. […] Compound A was dissolved in PEG 400, and then diluted with distilled water to make a 20% PEG drug solution. Serum FFA and TGs were measured using commercial kits from Wako Chemicals, Richmond, Va. Glucose and Insulin were measured using commercial kits from Wako Chemicals USA (Richmond, Va.). All data are reported as mean±SEM. Statistical analysis of data from experiments with 2 treatment groups was performed using the unpaired Student's t-test. Two way analysis of variance followed by Bonferroni's test was used for multiple comparisons.

For `O[C@@H]1[C@H](O)[C@@H](CSc2ccccc2F)O[C@H]1n1cnc2c(N[C@@H]3CCC[C@H]3O)ncnc21` [Compound A, 2-{6-[((1R,2R)-2-hydroxycyclopentyl)amino]purin-9-yl}(4S,5S,2R,3R)-5-[(2-fluorophenylthio)methyl]oxolane-3,4-diol], the “decrease in TG levels” value (awake rats [1]; 2.5 mg/kg oral gavage) was 36%, the “serum TG level” value (awake rats [1]; 2.5 mg/kg oral gavage, from 54±4 mg/dl, p<0.05) was 35 ± 4 mg/dL and the “reduction in TG levels compared to vehicle-treated rats” value (awake rats [1]; 5 mg/kg oral gavage) was 41%. The “serum TG level” value (awake rats [1]; 5 mg/kg oral gavage, p<0.01) was 32 ± 4 mg/dL, the “reduction in TG levels compared to vehicle-treated rats” value (awake rats [1]; 10 mg/kg oral gavage) was 58% and the “serum TG level” value (awake rats [1]; 10 mg/kg oral gavage, p<0.01) was 23 ± 1 mg/dL. For the same compound, the “reduction of serum triglyceride levels, dose dependence” value (awake rats [1]; 2.5, 5, 10 mg/kg oral gavage) was “dose-dependent manner”, the “maximal decrease in FFA levels” value (awake rats [2]; 1 mg/kg iv bolus) was 54±5% and the “FFA level after treatment” value (awake rats [2]; 1 mg/kg iv bolus, from 0.79±0.04 mM, p<0.001) was 0.36 ± 0.05 mM. For the same compound, the “FFA level after first iv injection” value (awake rats [2]; 1 mg/kg iv, first of three repeated injections, baseline 0.88±0.02 mM) was 0.35 ± 0.04 mM, the “FFA level after second iv injection” value (awake rats [2]; 1 mg/kg iv, second of three repeated injections, baseline 0.88±0.02 mM) was 0.35 ± 0.03 mM and the “FFA level after third iv injection” value (awake rats [2]; 1 mg/kg iv, third of three repeated injections, baseline 0.88±0.02 mM) was 0.38 ± 0.03 mM. The “decrease in FFA below baseline” value (awake rats [2]; 2.5 mg/kg oral gavage) was 31%, the “FFA level after treatment” value (awake rats [2]; 2.5 mg/kg oral gavage, from baseline 0.7±0.05 mM, p<0.05) was 0.5 ± 0.03 mM and the “decrease in FFA levels” value (awake rats [2]; 5 mg/kg oral gavage) was 47%. The “FFA level after treatment” value (awake rats [2]; 5 mg/kg oral gavage, from 0.8±0.04 mM, p<0.01) was 0.4 ± 0.03 mM, the “decrease in FFA levels” value (awake rats [2]; 10 mg/kg oral gavage) was 57% and the “FFA level after treatment” value (awake rats [2]; 10 mg/kg oral gavage, from 0.68±0.04 mM, p<0.001) was 0.29 ± 0.02 mM. For the same compound, the “duration of the effect to suppress lipolysis” value (awake rats [2]; 2.5, 5, 10 mg/kg oral gavage) was “dose-dependent”, the “lowering of FFA levels, dose dependence” value (awake rats [2]; 2.5, 5, 10 mg/kg oral gavage) was “dose-dependent manner” and the “rebound increase of FFA levels” value (awake rats [2]; after iv bolus) was “not observed”. The “acute tachyphylaxis of the FFA lowering effect” value (awake rats [2]; three repeated iv injections, 1 mg/kg) was “did not undergo acute tachyphylaxis”.
